Data: US20250314668A1, “DNAZYMES FOR SENSING AND IMAGING TARGET MOLECULES” (BOARD OF REGENTS, THE UNIVERSITY OF TEXAS SYSTEM, priority 2024, published 2025)
In the oligonucleotide strings, read from the 5' end, every base follows the letter of its sugar. An asterisk marks phosphorothioate; unmarked linkages are phosphodiester. Other units and linkages are bracketed, terminal groups are in braces. A string of capitals states the bases alone. d = 2'-deoxy (DNA); r = 2'-OH (RNA)

B1: Cu^+ DNAzyme: substrate strand Cu1 aS annealed with enzyme strand Cu1 aE (nucleic acid)
chain 1: AGCTTCTTTCTAATACGGCTTACCAC
chain 2: GTGGTAAGCCTGGGCCTCTTTCTTTTTAAGAAAGAAC
modifications: DNA, backbone not given here; Cy5 on substrate, Iowa Black RQ on enzyme, further chemistry not fully specified
notes: substrate strand Cu1 aS annealed with enzyme strand Cu1 aE

Experiments:
Type in all cases: biochemical
[1] = Gel based activity assay of Cu^2+ DNAzyme
Method: (§1) FIG. 10 depicts gel and fluorescence-based activity assay for Cu^+ and Cu^2+ DNAzyme. PAGE Gel images of Cu^+ DNAzyme cleaving the substrate in the presence of various concentrations of Cut. Lane 1: Cu^+ aS, Lane 2: Cu^+ aE, Lane 3-10: the concentration of Cu^2+ is 0 nM, 125 nM, 250 nM, 500 nM, 1 μM, 2 μM, 4 μM, and 8 μM, respectively, the concentration of ascorbate is 50 μM. Quantification of Cu^+. Inset is the linear response at low Cu^+ concentrations. denaturing gel images of Cu^2+ DNAzyme cleaving the substrate in the presence of various concentrations of Cu^2+. Lane1-8: the concentration of Cu^2+ is 0 μM, 1 μM, 2 μM, 4 μM, 6 μM, 8 μM, 10 μM, and 20 μM, respectively. Quantification of Cu^2+. Inset: the linear response at low Cu^2+ concentrations.
(§2) Gel based activity assays: For Cu^+ DNAzyme, 1 μM of Cu1 aS and 2 μM of Cu1 aE were added in 50 mM Bis-Tris, 150 mM NaCl, pH 7.5. The solution was heated at 90° C. for 5 min and slowly cooled down to room temperature for more than 1 h to anneal the DNAzyme. After annealing, each sample contains a final of 5 μL of 0.25 μM DNAzyme complex. 2 ul of 50 μM of freshly prepared ascorbate was mixed with DNAzyme complex. After adding 2 μl different concentration of Cu^2+, incubated at room temperature for 60 min. […] The gels were analyzed with Bio-Rad Gel Doc 2000 imaging system.

[2] = Fluorescence based activity assay of Cu^2+ sensor; settings: fluorescence at 520 nm, 30 min
Method: (§3) Fluorescence based activity assay: For Cu^+ sensor, […] of Cu1 aS Cy5 and 9 µM of Cu1 aE Q were annealed in a buffer of 50 mM Bis-Tris, 150 mM NaCl, pH 7.5. For each test, 2 μL of the annealed sensor was diluted into 194 μL of buffer (50 mM Bis-Tris, 150 mM NaCl, pH 7.5), and 2 μL of 5 mM ascorbate was added. Then 2 μL of 2 μl different concentration of Cu^2+ were added. The signaling kinetics were monitored (Ex=635 nm; Em=666 nm) using Hitachi fluorimeter. For Cu^2+ sensor, the DNAzyme complex was formed by annealing the 5 μM of Cu2 PSrS FAM and 7.5 μM Cu2 aE Q in 50 mM MES, 25 mM NaCl, pH 6.0. For each well, 2 μL of the annealed sensor was diluted into 196 μL of buffer (50 mM MES, 25 mM NaCl, pH 6.0). 2 μL different concentration of Cu^2+ were added to initiate cleavage reaction, and the signaling kinetics were monitored (Ex=488 nm; Em=520 nm) using Hitachi fluorimeter.

[3] = Gel based activity assay of Cu^+ DNAzyme
Method: as §1, §2

[4] = Fluorescence based activity assay of Cu^+ sensor; settings: fluorescence at 666 nm, 30 min
Method: as §3

Molecule	activity with high ascorbic [1]	selectivity between copper oxidation states [1]	detection limit [2]	selectivity between copper oxidation states [3]	cleavage dependence on ascorbic ([3]; no cleavage products at low concentrations of ascorbic)	detection limit [4]
Cu^2+ DNAzyme: substrate strand Cu2 PSrS annealed with enzyme strand Cu2 aE (chain 1 dAdGdTdCdAdCdTdAdTrA*dGdGdAdAdGdAdTdGdGdCdGdAdAdA; chain 2 TTTCGCCATCTTCACCAGGAAATAGTGACT; chain 2: unmodified DNA)	no activity	excellent selectivity	35.16 nM			
B1				excellent selectivity	ascorbic concentration dependent cleavage	53.92 nM
